Results as given in ChEMBL document CHEMBL5465560, “Selectivity Literature for EUbOPEN Chemogenomic Library” (2024).
Values belong to the molecule of their own block, whether it stands above or below them.

Columns and labels:
[1] = biological target: T1, Mitogen-activated protein kinase kinase kinase 6 (Homo sapiens) (UniProt O95382); experiment: Selectivity interaction (Ambit KINOMEscan and KiNATiv profiling in Jurkat cells) EUB0000090b MAP3K6; assay type: cell-based; details: at 1 µM
T1 sequence (whole entry): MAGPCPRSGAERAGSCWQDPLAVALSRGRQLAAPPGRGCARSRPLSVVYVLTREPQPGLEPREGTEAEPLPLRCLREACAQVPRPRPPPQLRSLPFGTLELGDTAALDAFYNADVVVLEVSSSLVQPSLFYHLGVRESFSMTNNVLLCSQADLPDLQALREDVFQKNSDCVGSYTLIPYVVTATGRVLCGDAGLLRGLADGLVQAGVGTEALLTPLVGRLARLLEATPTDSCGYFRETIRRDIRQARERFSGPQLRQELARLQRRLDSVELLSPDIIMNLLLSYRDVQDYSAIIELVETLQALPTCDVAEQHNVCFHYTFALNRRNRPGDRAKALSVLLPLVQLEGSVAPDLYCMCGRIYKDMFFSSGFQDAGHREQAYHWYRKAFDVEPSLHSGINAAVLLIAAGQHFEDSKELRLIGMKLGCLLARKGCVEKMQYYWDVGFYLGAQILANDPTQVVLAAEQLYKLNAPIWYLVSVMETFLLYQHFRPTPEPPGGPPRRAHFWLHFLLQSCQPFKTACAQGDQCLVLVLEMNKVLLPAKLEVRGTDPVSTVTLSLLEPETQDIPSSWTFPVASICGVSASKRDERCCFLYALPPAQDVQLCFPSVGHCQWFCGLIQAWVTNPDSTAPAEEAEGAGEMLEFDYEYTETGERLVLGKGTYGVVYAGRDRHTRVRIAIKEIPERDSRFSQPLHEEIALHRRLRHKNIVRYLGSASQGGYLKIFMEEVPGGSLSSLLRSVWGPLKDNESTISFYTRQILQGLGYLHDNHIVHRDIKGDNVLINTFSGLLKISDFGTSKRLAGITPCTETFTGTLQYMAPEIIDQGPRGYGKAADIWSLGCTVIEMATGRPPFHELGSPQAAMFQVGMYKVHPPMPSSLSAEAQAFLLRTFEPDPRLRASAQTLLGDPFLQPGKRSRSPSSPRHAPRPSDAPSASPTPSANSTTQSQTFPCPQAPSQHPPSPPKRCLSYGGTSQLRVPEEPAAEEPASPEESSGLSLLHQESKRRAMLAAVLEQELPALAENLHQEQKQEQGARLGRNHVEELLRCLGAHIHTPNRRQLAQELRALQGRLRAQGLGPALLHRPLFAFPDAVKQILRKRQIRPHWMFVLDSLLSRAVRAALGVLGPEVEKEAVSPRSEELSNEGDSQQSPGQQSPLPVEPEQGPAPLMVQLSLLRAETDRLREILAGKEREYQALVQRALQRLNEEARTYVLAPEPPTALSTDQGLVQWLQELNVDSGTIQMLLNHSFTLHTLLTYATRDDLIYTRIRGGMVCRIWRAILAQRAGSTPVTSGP

[2] = biological target: Serine/threonine-protein kinase PAK 6 (Homo sapiens) (UniProt Q9NQU5); experiment: Selectivity interaction (KinomeScan (DiscoverX)) EUB0000655a PAK6; details: at 10 µM
[3] = biological target: T2, 3-phosphoinositide-dependent protein kinase 1 (Homo sapiens) (UniProt O15530); details: at 10 µM
T2 sequence (whole entry): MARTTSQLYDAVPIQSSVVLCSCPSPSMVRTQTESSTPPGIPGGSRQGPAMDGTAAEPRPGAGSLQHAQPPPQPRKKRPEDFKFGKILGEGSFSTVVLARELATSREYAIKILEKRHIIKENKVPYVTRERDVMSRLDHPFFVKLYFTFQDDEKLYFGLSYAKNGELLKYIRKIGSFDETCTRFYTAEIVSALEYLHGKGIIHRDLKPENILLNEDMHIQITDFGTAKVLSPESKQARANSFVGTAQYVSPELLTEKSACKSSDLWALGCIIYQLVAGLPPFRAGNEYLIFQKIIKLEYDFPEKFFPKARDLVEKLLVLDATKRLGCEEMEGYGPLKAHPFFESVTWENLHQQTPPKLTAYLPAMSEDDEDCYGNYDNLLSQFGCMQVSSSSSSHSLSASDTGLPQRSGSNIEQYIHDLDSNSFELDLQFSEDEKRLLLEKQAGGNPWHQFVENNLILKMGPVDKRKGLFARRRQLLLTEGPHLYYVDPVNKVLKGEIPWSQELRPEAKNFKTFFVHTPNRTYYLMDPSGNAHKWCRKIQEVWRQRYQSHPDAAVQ

[4] = biological target: T3, Bone morphogenetic protein receptor type-2 (Homo sapiens) (UniProt Q13873); experiment: Selectivity interaction (KinomeScan (DiscoverX)) EUB0000092b BMPR2; details: at 10 µM
T3 sequence (whole entry): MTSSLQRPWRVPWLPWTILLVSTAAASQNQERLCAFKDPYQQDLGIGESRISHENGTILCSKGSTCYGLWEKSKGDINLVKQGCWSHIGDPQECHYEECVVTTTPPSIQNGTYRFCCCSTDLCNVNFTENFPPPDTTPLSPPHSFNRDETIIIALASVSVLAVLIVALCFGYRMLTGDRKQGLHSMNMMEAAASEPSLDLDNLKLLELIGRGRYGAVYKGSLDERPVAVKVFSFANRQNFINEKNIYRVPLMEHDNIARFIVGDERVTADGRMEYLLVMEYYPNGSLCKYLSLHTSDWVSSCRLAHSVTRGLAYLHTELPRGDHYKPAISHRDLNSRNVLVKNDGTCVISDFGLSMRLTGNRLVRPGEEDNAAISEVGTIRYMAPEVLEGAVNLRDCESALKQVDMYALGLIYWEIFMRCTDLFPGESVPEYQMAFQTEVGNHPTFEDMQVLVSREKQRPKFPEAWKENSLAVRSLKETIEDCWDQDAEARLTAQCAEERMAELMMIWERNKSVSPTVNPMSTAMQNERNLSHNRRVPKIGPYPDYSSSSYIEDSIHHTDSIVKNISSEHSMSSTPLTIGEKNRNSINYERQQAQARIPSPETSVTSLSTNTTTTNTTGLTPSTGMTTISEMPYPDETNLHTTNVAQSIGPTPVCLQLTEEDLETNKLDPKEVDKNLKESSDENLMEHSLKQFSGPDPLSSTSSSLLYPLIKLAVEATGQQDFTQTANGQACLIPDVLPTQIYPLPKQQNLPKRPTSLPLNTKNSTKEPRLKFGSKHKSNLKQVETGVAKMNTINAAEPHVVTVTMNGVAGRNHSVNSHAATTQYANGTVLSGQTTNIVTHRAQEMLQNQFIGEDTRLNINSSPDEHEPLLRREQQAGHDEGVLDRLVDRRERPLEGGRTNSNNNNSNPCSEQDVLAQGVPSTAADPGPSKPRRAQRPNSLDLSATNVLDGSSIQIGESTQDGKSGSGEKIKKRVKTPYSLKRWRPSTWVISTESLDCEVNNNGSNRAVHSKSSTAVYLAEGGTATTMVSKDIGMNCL

[5] = biological target: Mitogen-activated protein kinase kinase kinase kinase 4 (Homo sapiens, UniProt O95819); experiment: Selectivity interaction (Kinase panel (Z-LYTE Assay)) EUB0001632a MAP4K4; details: at 10 µM
Sequence of Mitogen-activated protein kinase kinase kinase kinase 4 (O95819 2-1239 limits assumed): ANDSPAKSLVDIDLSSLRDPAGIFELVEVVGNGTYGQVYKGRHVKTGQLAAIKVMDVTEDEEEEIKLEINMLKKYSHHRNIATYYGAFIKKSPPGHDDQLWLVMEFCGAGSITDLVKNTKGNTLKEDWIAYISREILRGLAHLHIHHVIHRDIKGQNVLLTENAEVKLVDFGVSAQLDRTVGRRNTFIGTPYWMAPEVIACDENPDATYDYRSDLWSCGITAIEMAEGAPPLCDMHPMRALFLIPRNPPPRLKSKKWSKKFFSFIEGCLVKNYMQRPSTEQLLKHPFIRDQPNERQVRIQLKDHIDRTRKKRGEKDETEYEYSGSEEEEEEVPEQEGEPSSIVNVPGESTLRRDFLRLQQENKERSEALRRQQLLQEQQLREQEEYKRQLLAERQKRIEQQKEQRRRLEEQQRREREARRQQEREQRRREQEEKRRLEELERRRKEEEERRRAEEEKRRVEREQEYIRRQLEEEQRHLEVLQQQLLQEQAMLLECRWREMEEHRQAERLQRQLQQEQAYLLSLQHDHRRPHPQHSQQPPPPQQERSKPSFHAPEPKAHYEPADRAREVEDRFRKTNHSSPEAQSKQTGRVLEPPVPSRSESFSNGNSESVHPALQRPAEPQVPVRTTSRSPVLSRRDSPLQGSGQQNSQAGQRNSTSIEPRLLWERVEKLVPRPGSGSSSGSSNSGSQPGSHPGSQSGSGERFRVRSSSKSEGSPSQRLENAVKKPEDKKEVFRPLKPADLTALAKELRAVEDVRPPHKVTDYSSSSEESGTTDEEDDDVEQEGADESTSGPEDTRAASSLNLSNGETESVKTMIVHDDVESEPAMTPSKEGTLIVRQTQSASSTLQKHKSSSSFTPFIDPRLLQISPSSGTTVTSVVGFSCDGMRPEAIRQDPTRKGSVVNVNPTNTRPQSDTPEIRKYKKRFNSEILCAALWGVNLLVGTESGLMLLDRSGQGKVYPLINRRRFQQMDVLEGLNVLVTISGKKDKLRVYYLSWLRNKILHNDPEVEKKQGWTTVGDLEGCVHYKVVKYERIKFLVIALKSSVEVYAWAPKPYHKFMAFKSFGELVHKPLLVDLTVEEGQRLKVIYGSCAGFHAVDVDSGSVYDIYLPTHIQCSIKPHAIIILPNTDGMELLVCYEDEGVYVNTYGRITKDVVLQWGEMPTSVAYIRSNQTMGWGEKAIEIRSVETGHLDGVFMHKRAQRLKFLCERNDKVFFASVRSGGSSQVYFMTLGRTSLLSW

Sequence of Serine/threonine-protein kinase PAK 6 (Homo sapiens) (Q9NQU5 whole entry, looked up): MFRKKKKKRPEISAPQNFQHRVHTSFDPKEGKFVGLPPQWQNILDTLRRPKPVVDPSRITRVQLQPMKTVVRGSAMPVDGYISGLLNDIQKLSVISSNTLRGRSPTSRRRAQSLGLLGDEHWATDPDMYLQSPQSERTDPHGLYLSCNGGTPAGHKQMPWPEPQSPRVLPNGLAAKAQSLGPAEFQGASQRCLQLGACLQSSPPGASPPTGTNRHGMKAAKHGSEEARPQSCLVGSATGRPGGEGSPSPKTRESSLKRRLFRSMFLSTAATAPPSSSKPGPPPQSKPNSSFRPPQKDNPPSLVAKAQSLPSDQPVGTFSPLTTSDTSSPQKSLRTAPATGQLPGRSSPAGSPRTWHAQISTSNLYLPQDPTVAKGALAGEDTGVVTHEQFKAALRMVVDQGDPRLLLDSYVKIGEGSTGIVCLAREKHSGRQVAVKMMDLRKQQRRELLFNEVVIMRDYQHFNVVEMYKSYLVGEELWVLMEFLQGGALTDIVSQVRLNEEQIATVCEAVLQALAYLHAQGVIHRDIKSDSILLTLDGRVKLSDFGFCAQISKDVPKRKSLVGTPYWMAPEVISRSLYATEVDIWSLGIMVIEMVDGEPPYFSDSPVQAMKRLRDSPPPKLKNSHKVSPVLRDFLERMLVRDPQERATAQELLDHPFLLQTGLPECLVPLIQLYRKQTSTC

Structure (SMILES): CN(C)C/C=C/C(=O)Nc1ccc(C(=O)N2CCCC(Nc3ncc(Cl)c(-c4c[nH]c5ccccc45)n3)C2)cc1 (stereo not given)
% of control [1]: 100%

Structure (SMILES): CN(C)CCOc1ccc(-c2nc(-c3ccncc3)c(-c3ccc4c(c3)CC/C4=N\O)[nH]2)cc1
% of control [2]: 100%

Structure (SMILES): COCC(=O)NC/C=C/c1ccc2ncnc(Nc3ccc(Oc4ccc(C)nc4)c(C)c3)c2c1 [CP-724714]
% of control [3]: 100%

Structure (SMILES): CCC(=O)N1CCN(c2ccc(-n3c(=O)ccc4cnc5ccc(-c6cnc7ccccc7c6)cc5c43)cc2C(F)(F)F)CC1
% of control [4]: 85%

% of control [5]: 4.98%
Structure (SMILES): Cn1cc(-n2cnc3c(NCc4nc5cc(Cl)c(Cl)cc5[nH]4)nc(N4CCOCC4)nc32)cn1
